Earlier results as cited in patent US20170027865A1, “Dry Pharmaceutical Compositions for Topical Delivery of Oral Medications, Nasal Delivery and to Treat Ear Disorders” (CMPD LICENSING LLC, priority 2013, published 2017).

Assays:
[1] = test system: Paracoccidioides brasiliensis
[2] = test system: Staphylococcus epidermidis; settings: Gram: pos
Mycoplasma pneumoniae = settings: Gram: n/a
Bacteroides fragilis = settings: Gram: anaer
Moraxella catarrhalis = settings: Gram: neg
Streptococcus pyogenes = settings: Gram: pos
Serratia marcescens = settings: Gram: neg
Enterobacter sakazakii = settings: Gram: neg
[3] = test system: Acinetobacter calcoaceticus; settings: Gram: neg
Haemophilus ducreyi = settings: Gram: neg
Providencia rettgeri = settings: Gram: neg
Streptococcus pneumoniae = settings: Gram: pos
Campylobacter jejuni = settings: Gram: neg
Bordetella pertussis = settings: Gram: neg
Shigella boydii = settings: Gram: neg
Citrobacter freundii = settings: Gram: neg
[4] = test system: Staphylococcus aureus (MSSA); settings: Gram: pos
Citrobacter diversus = settings: Gram: neg
[5] = test system: Corynebacterium urealyticum; settings: Gram: pos
[6] = test system: Haemophilus parainfluenzae; settings: Gram: neg
Peptostreptococcus = settings: Gram: pos
Enterobacter aerogenes = settings: Gram: neg
Streptococcus agalactiae = settings: Gram: pos
Klebsiella oxytoca = settings: Gram: neg
Morganella morganii = settings: Gram: neg
Proteus mirabilis = settings: Gram: neg
Chlamydia trachomatis = settings: Gram: n/a
Klebsiella pneumoniae = settings: Gram: neg
Acinetobacter baumannii = settings: Gram: neg
Bartonella bacilliformis = settings: Gram: neg
Neisseria gonorrhoeae = settings: Gram: neg
Shigella flexneri = settings: Gram: neg
Proteus vulgaris = settings: Gram: neg
Chlamydia pneumoniae = settings: Gram: n/a
Pseudomonas fluorescens = settings: Gram: neg
Acinetobacter lwoffii = settings: Gram: neg
Neisseria meningitidis = settings: Gram: neg
Haemophilus influenzae = settings: Gram: neg
Enterobacter cloacae = settings: Gram: neg
Pseudomonas aeruginosa = settings: Gram: neg
Providencia stuartii = settings: Gram: neg
Diphtheroids = settings: Gram: pos
Shigella sonnei = settings: Gram: neg
Enterococcus faecalis = settings: Gram: pos
Salmonella typhi = settings: Gram: neg
Shigella dysenteriae = settings: Gram: neg
Corynebacterium jeikeium = settings: Gram: pos
Clostridium difficile = settings: Gram: anaer
Vibrio cholerae = settings: Gram: neg
[7] = test system: Klebsiella (Calymmatobacterium) granulomatis; settings: Gram: neg
[8] = test system: Viridans group streptococci; settings: Gram: pos
[9] = test system: Methicillin Resistant Staph aureus (MRSA); settings: Gram: pos
Escherichia coli = settings: Gram: neg

**Q.** Which results are given for C[C@@H](c1ncncc1F)[C@](O)(Cn1cncn1)c1ccc(F)cc1F [Voriconazole, voriconazole]?
**A.** Expected coverage (Aspergillus fumigatus): yes; Expected coverage (Fusarium species): yes; Expected coverage (Aspergillus flavus): yes; Expected coverage (Candida species): yes; Expected coverage (Aspergillus terreus): yes; Expected coverage (Aspergillus niger): yes; Expected coverage (Scedosporium apiospermum): yes

**Q.** Which Expected coverage (Blastomyces dermatitidis) does the source give for C[C@@H]1[C@H](O)[C@@H](C)/C=C/C=C/C=C/C=C/C=C/C=C/C=C/[C@H](O[C@@H]2O[C@H](C)[C@@H](O)[C@H](N)[C@@H]2O)C[C@@H]2O[C@](O)(C[C@@H](O)C[C@@H](O)[C@H](O)CC[C@@H](O)C[C@@H](O)CC(=O)O[C@H]1C)C[C@H](O)[C@H]2C(=O)O [Amphotericin, amphotericin B] here?
**A.** yes

**Q.** And the Expected coverage (Aspergillus fumigatus)?
**A.** yes

**Q.** What about the Expected coverage (Aspergillus flavus) of the same compound?
**A.** yes

**Q.** And the Expected coverage (Candida species)?
**A.** yes

**Q.** What about the Expected coverage (Cryptococcus neoformans) of the same compound?
**A.** yes

**Q.** And the Expected coverage [1]?
**A.** yes

**Q.** And the Expected coverage (Coccidioides immitis)?
**A.** yes

**Q.** What about the Expected coverage (Aspergillus terreus) of the same compound?
**A.** yes

**Q.** What about the Expected coverage (Leishmania infantum) of the same compound?
**A.** yes

**Q.** What about the Expected coverage (Histoplasma capsulatum) of the same compound?
**A.** yes

**Q.** What about the Expected coverage (Aspergillus niger) of the same compound?
**A.** yes

**Q.** What about the Expected coverage (Leishmania donovani) of the same compound?
**A.** yes

**Q.** With CN[C@H](CC(C)C)C(=O)N[C@H]1C(=O)N[C@@H](CC(N)=O)C(=O)N[C@H]2C(=O)N[C@H]3C(=O)N[C@H](C(=O)N[C@H](C(=O)O)c4cc(O)cc(O)c4-c4cc3ccc4O)[C@H](O)c3ccc(c(Cl)c3)Oc3cc2cc(c3O[C@@H]2O[C@H](CO)[C@@H](O)[C@H](O)[C@H]2O[C@H]2C[C@](C)(N)[C@H](O)[C@H](C)O2)Oc2ccc(cc2Cl)[C@H]1O [Vancomycin, vancomycin] as the compound, how does the Expected coverage (Francisella tularensis) read?
**A.** no

**Q.** And the Expected coverage [2]?
**A.** yes

**Q.** What about the Expected coverage (Mycoplasma pneumoniae) of the same compound?
**A.** no

**Q.** And the Expected coverage (Bacteroides fragilis)?
**A.** no

**Q.** What about the Expected coverage (Moraxella catarrhalis) of the same compound?
**A.** no

**Q.** What about the Expected coverage (Rickettsiae) of the same compound?
**A.** no

**Q.** What about the Expected coverage (Streptococcus pyogenes) of the same compound?
**A.** yes

**Q.** And the Expected coverage (Serratia marcescens)?
**A.** no

**Q.** And the Expected coverage (Enterobacter sakazakii)?
**A.** no

**Q.** What about the Expected coverage [3] of the same compound?
**A.** no

**Q.** What about the Expected coverage (Haemophilus ducreyi) of the same compound?
**A.** no

**Q.** What about the Expected coverage (Providencia rettgeri) of the same compound?
**A.** no

**Q.** And the Expected coverage (Streptococcus pneumoniae)?
**A.** yes

**Q.** And the Expected coverage (Campylobacter jejuni)?
**A.** no

**Q.** What about the Expected coverage (Bordetella pertussis) of the same compound?
**A.** no

**Q.** And the Expected coverage (Shigella boydii)?
**A.** no

**Q.** And the Expected coverage (Citrobacter freundii)?
**A.** no

**Q.** And the Expected coverage [4]?
**A.** yes

**Q.** And the Expected coverage (Citrobacter diversus)?
**A.** no

**Q.** What about the Expected coverage [5] of the same compound?
**A.** yes

**Q.** And the Expected coverage [6]?
**A.** no

**Q.** And the Expected coverage (Peptostreptococcus)?
**A.** yes

**Q.** What about the Expected coverage (Enterobacter aerogenes) of the same compound?
**A.** no

**Q.** And the Expected coverage (Streptococcus agalactiae)?
**A.** yes

**Q.** What about the Expected coverage (Legionella pneumophila) of the same compound?
**A.** no

**Q.** What about the Expected coverage (Klebsiella oxytoca) of the same compound?
**A.** no

**Q.** What about the Expected coverage (Morganella morganii) of the same compound?
**A.** no

**Q.** What about the Expected coverage (Proteus mirabilis) of the same compound?
**A.** no

**Q.** And the Expected coverage (Chlamydia trachomatis)?
**A.** no

**Q.** What about the Expected coverage (Brucella species) of the same compound?
**A.** no

**Q.** What about the Expected coverage (Klebsiella pneumoniae) of the same compound?
**A.** no

**Q.** What about the Expected coverage (Acinetobacter baumannii) of the same compound?
**A.** no

**Q.** What about the Expected coverage (Clostridium perfringens) of the same compound?
**A.** no

**Q.** What about the Expected coverage (Bartonella bacilliformis) of the same compound?
**A.** no

**Q.** And the Expected coverage (Neisseria gonorrhoeae)?
**A.** no

**Q.** And the Expected coverage (Shigella flexneri)?
**A.** no

**Q.** And the Expected coverage (Proteus vulgaris)?
**A.** no

**Q.** And the Expected coverage (Chlamydia pneumoniae)?
**A.** no

**Q.** And the Expected coverage (Pseudomonas fluorescens)?
**A.** no

**Q.** And the Expected coverage (Acinetobacter lwoffii)?
**A.** no

**Q.** And the Expected coverage (Neisseria meningitidis)?
**A.** no

**Q.** And the Expected coverage (Haemophilus influenzae)?
**A.** no

**Q.** What about the Expected coverage (Enterobacter cloacae) of the same compound?
**A.** no

**Q.** What about the Expected coverage (Pseudomonas aeruginosa) of the same compound?
**A.** no

**Q.** And the Expected coverage (Providencia stuartii)?
**A.** no

**Q.** What about the Expected coverage (Diphtheroids) of the same compound?
**A.** yes

**Q.** What about the Expected coverage (Shigella sonnei) of the same compound?
**A.** no

**Q.** And the Expected coverage (Enterococcus faecalis)?
**A.** yes

**Q.** And the Expected coverage (Salmonella typhi)?
**A.** no

**Q.** And the Expected coverage (Shigella dysenteriae)?
**A.** no

**Q.** And the Expected coverage (Corynebacterium jeikeium)?
**A.** yes

**Q.** And the Expected coverage (Clostridium difficile)?
**A.** yes

**Q.** What about the Expected coverage (Yersinia pestis) of the same compound?
**A.** no

**Q.** What about the Expected coverage (Vibrio cholerae) of the same compound?
**A.** no

**Q.** And the Expected coverage [7]?
**A.** no

**Q.** And the Expected coverage [8]?
**A.** yes

**Q.** And the Expected coverage [9]?
**A.** yes

**Q.** And the Expected coverage (Chlamydia psittaci)?
**A.** no

**Q.** What about the Expected coverage (Escherichia coli) of the same compound?
**A.** no

**Q.** With OC(Cn1cncn1)(Cn1cncn1)c1ccc(F)cc1F [Fluconazole, fluconazole] as the compound, how does the Expected coverage (Blastomyces dermatitidis) read?
**A.** yes

**Q.** What about the Expected coverage (Aspergillus fumigatus) of the same compound?
**A.** yes

**Q.** What about the Expected coverage (Aspergillus flavus) of the same compound?
**A.** yes

**Q.** And the Expected coverage (Candida species)?
**A.** yes

**Q.** What about the Expected coverage (Cryptococcus neoformans) of the same compound?
**A.** yes

**Q.** And the Expected coverage (Coccidioides immitis)?
**A.** yes

**Q.** What about the Expected coverage (Histoplasma capsulatum) of the same compound?
**A.** yes
